Reference: patent US20250268960A1, “COMPOSITION FOR PREVENTION AND TREATMENT OF OBESITY OR INSULIN RESISTANCE SYNDROME COMPRISING LACTOBACILLUS PLANTARUM HAC03 AND RUTIN” (HANDONG GLOBAL UNIVERSITY INDUSTRY-ACADEMIC COOPERATION …, priority 2023, published 2025)

Test system: PR/SET domain 16 (PRDM16)
Assay: qPCR expression of thermogenesis gene PRDM16 in brown adipose tissue
Format: in vivo, C57BL6 mice
Conditions: mRNA, brown adipose tissue (BAT), high-fat diet mice; compared to HFD group
Experimental: Five-week-old male C57BL6 mice were purchased and acclimated for one week. Then, the mice in each group (n=10) were fed a low-fat diet or high-fat diet. After first allowing them to consume a low-fat diet or high-fat diet for a week, the mice in each group were orally administered with Lactobacillus plantarum HAC03, quercetin, or rutin once a day for 14 weeks.
Then, the expression levels of lipogenesis-related genes were measured at the mRNA level through qPCR.
Specifically, the colons of mice in each experimental group were homogenized, dissolved in Trizol® (RNA extraction buffer, Thermo Fisher), and RNA was extracted according to the protocol provided by the manufacturer. The extracted RNA was quantified, and an equal amount of RNA was synthesized into cDNA by reverse transcription using the SuperiorScript III cDNA synthesis Kit (Enzynomics, Daejeon, South Korea). Thereafter, real-time PCR was performed using each gene-specific primer in Table 3, TOPreal qPCR 2X premix (SYBR Green with high ROX) (Enzynomics, Daejeon, South Korea), and cDNA. Real-time PCR was performed using the ABI 7500 Fast Real time PCR system (Applied Biosystems, Waltham, MA, USA). The relative gene expression levels were calculated using the ÄÄCt method.

O=c1c(O)c(-c2ccc(O)c(O)c2)oc2cc(O)cc(O)c12 [Q, Quercetin]
expression level of PRDM16: increased
